In one assay the test system is AR / CBP ternary complex. Briefly: Ternary complex formation assay (sandwich ELISA, AR capture / CBP detection) in VCaP cell lysates. Type of assay: cell-based. Conditions: 1.5 hours treatment, sandwich ELISA (AR capture, CBP or p300 detection). Put shortly: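 Anti-AR (AR 441)-coated plates capture AR from lysates of VCaP cells grown ≥3 days at 50K/well in 5% charcoal-stripped FBS, dosed with bifunctional for 1.5 h and lysed 30 min at 4 °C. Co-captured CBP/p300 is probed with rabbit mAb and HRP anti-rabbit, then QuantaRed fluorescence (570/585) is read at 0, 5 and 15 min.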
(In general: An ELISA detects its analyte on a solid surface through an enzyme-linked reagent.)

Another assay relates to VCaP cells. Briefly: VCaP growth inhibition assay. Format: cell-based. Conditions: 30 pM R1881, 9 days, CTG. Put shortly:
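Growth read by CTG luminescence after 9-day exposure to compound (final 100 nM–10 fM, 1:5 steps) plus 30 pM R1881, in phenol red-free DMEM with 5% CSS. Cells pre-incubated 72 h before dosing; IC50 by nonlinear 4-parameter regression.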

One may read the EC50 as the concentration needed to bring the measured effect to its halfway point. Low values mean higher potency in that assay, high ones lower potency in that assay. A word on the IC50: it is the point on the concentration scale where inhibition reaches its midpoint. A higher IC50 goes with weaker potency.

As to `COc1cc(OC2C(C)(C)C(NC(=O)c3ccc(N4CCC(CN5CCC(n6nc(N7CCCc8cc(C#N)c(C(F)F)cc87)c7c6CCN(C(C)=O)C7)CC5)C(C)(C)C4)cc3)C2(C)C)ccc1C#N` (stereo not shown) [Compound 451, 4-[4-[[4-[5-acetyl-3-[6-cyano-7-(difluoromethyl)-3,4-dihydro-2H-quinolin-1-yl]-6,7-dihydro-4H-pyrazolo[4,3-c]pyridin-1-yl]-1-piperidyl]methyl]-3,3-dimethyl-1-piperidyl]-N-[3-(4-cyano-3-methoxy-phenoxy)-2,2,4,4-tetramethyl-cyclobutyl]benzamide], in the assay on AR / CBP ternary complex, the EC50 was < 1 nM. The compound further came in with an IC50 in the assay with VCaP cells of 0.1 to 1 nM.

In the case of `C[C@@H]1CC(=O)Nc2cccc(-c3ccc4c(c3)c(-c3cnn(C)c3)nn4C3CCN(c4ncc(C(=O)NC5C(C)(C)C(Oc6ccc(C#N)c(Cl)c6)C5(C)C)cn4)CC3)c2N1` (stereo partly drawn) [Compound 60, N-[3-(3-chloro-4-cyano-phenoxy)-2,2,4,4-tetramethyl-cyclobutyl]-2-[4-[5-[(4R)-4-methyl-2-oxo-1,3,4,5-tetrahydro-1,5-benzodiazepin-6-yl]-3-(1-methylpyrazol-4-yl)indazol-1-yl]-1-piperidyl]pyrimidine-5-carboxamide], in the assay on AR / CBP ternary complex, the EC50 was > 100 nM. Also, the IC50 with VCaP cells was > 100 nM.

With `CC(=O)N1CCc2c(c(N3CCCc4cc(-c5cnn(C)c5)c(C)cc43)nn2C2CCN(CC3CCN(c4ncc(C(=O)NC5C(C)(C)C(Oc6ccc(C#N)c(C)c6C)C5(C)C)cn4)CC3(C)C)CC2)C1` (stereo not shown) [Compound 465, 2-[4-[[4-[5-acetyl-3-[7-methyl-6-(1-methylpyrazol-4-yl)-3,4-dihydro-2H-quinolin-1-yl]-6,7-dihydro-4H-pyrazolo[4,3-c]pyridin-1-yl]-1-piperidyl]methyl]-3,3-dimethyl-1-piperidyl]-N-[3-(4-cyano-2,3-dimethyl-phenoxy)-2,2,4,4-tetramethyl-cyclobutyl]pyrimidine-5-carboxamide], the EC50 with AR / CBP ternary complex is < 1 nM. The compound further gave an IC50 in the assay with VCaP cells of 0.1 to 1 nM.

Consider `CC(=O)N1CCc2c(c(N3CCCc4cnccc43)nn2C2CCN(C(=O)C3CCN(c4ncc(C(=O)NC5C(C)(C)C(Oc6ccc(C#N)c(Cl)c6)C5(C)C)cn4)CC3)CC2)C1` (stereo not shown) [Compound 128, 2-[4-[4-[5-acetyl-3-(3,4-dihydro-2H-1,6-naphthyridin-1-yl)-6,7-dihydro-4H-pyrazolo[4,3-c]pyridin-1-yl]piperidine-1-carbonyl]-1-piperidyl]-N-[3-(3-chloro-4-cyano-phenoxy)-2,2,4,4-tetramethyl-cyclobutyl]pyrimidine-5-carboxamide], for which the EC50 in the assay on AR / CBP ternary complex was > 100 nM. Also, in the assay on VCaP cells, the IC50 is > 100 nM.

In the case of `COc1cc(OC2C(C)(C)C(NC(=O)c3ccc(N4CCC5(CC(N6CCC(n7nc(N8CCCc9cc(-c%10cnn(C)c%10)c(C(F)F)cc98)c8c7CCN(C(C)=O)C8)CC6)C5)C4)cc3)C2(C)C)ccc1C#N` (stereo not shown) [Compound 347, 4-[2-[4-[5-acetyl-3-[7-(difluoromethyl)-6-(1-methylpyrazol-4-yl)-3,4-dihydro-2H-quinolin-1-yl]-6,7-dihydro-4H-pyrazolo[4,3-c]pyridin-1-yl]-1-piperidyl]-6-azaspiro[3.4]octan-6-yl]-N-[3-(4-cyano-3-methoxy-phenoxy)-2,2,4,4-tetramethyl-cyclobutyl]benzamide], in the assay on AR / CBP ternary complex, the EC50 is < 1 nM. Also, in the assay on VCaP cells, the IC50 is ≤ 0.1 nM.

On to `CC(=O)N1CCc2c(c(N3CCCc4cc(-c5cnn(C)c5)c(C(F)F)cc43)nn2C2CCN(C(C)CC3CCN(c4ncc(C(=O)NC5C(C)(C)C(Oc6ccc(C#N)c(Cl)c6)C5(C)C)cn4)CC3)CC2)C1` (stereo not shown) [Compound 171, 2-[4-[2-[4-[5-acetyl-3-[7-(difluoromethyl)-6-(1-methylpyrazol-4-yl)-3,4-dihydro-2H-quinolin-1-yl]-6,7-dihydro-4H-pyrazolo[4,3-c]pyridin-1-yl]-1-piperidyl]propyl]-1-piperidyl]-N-[3-(3-chloro-4-cyano-phenoxy)-2,2,4,4-tetramethyl-cyclobutyl]pyrimidine-5-carboxamide], for which the EC50 with AR / CBP ternary complex was < 1 nM. The IC50 in the assay on VCaP cells was ≤ 0.1 nM.

`CC(=O)N1CCc2c(c(Nc3ccc(-c4cnn(C)c4)cc3F)nn2C2CCN(C(=O)CC3CCN(c4ncc(C(=O)NC5C(C)(C)C(Oc6ccc(C#N)c(Cl)c6)C5(C)C)cn4)CC3)CC2)C1` (stereo not shown) [Compound 178, 2-[4-[2-[4-[5-acetyl-3-[2-fluoro-4-(1-methylpyrazol-4-yl)anilino]-6,7-dihydro-4H-pyrazolo[4,3-c]pyridin-1-yl]-1-piperidyl]-2-oxo-ethyl]-1-piperidyl]-N-[3-(3-chloro-4-cyano-phenoxy)-2,2,4,4-tetramethyl-cyclobutyl]pyrimidine-5-carboxamide]: the EC50 with AR / CBP ternary complex is < 1 nM. The same compound yielded an IC50 in the assay with VCaP cells of 0.1 to 1 nM.

With `COc1cc(OC2C(C)(C)C(NC(=O)c3ccc(N4CCC(CN5CCC(n6nc(N7CCCc8cc(-c9cnn(C)c9)c(C)cc87)c7c6CCN(C(C)=O)C7)CC5)C(C)(C)C4)cc3)C2(C)C)ccc1C#N` (stereo not shown) [Compound 447, 4-[4-[[4-[5-acetyl-3-[7-methyl-6-(1-methylpyrazol-4-yl)-3,4-dihydro-2H-quinolin-1-yl]-6,7-dihydro-4H-pyrazolo[4,3-c]pyridin-1-yl]-1-piperidyl]methyl]-3,3-dimethyl-1-piperidyl]-N-[3-(4-cyano-3-methoxy-phenoxy)-2,2,4,4-tetramethyl-cyclobutyl]benzamide], the EC50 with AR / CBP ternary complex is < 1 nM. In the assay on VCaP cells, this compound registered an IC50 of 0.1 to 1 nM.

With `CC(=O)N1CCc2c(c(N3CCCc4cc(-c5ccn(C)n5)c(C(F)F)cc43)nn2C2CCN(CC3CCC(n4cc(C(=O)NC5C(C)(C)C(Oc6ccc(C#N)c(Cl)c6)C5(C)C)cn4)CC3)CC2)C1` (stereo not shown) [Compound 241, 1-[4-[[4-[5-acetyl-3-[7-(difluoromethyl)-6-(1-methylpyrazol-3-yl)-3,4-dihydro-2H-quinolin-1-yl]-6,7-dihydro-4H-pyrazolo[4,3-c]pyridin-1-yl]-1-piperidyl]methyl]cyclohexyl]-N-[3-(3-chloro-4-cyano-phenoxy)-2,2,4,4-tetramethyl-cyclobutyl]pyrazole-4-carboxamide], the 50% effective concentration (EC50) with AR / CBP ternary complex was 1 to 10 nM. The same compound returned a half-maximal inhibitory concentration (IC50) in the assay on VCaP cells of 0.1 to 1 nM.

In the case of `CC(=O)N1CCc2c(c(N3CCCc4cc(-c5cnn(C)c5)c(C(F)F)cc43)nn2C2CCN(CC3C(C)CN(c4ncc(C(=O)NC5C(C)(C)C(Oc6ccc(C#N)c(C)c6)C5(C)C)cn4)CC3C)CC2)C1` (stereo not shown) [Compound 462, 2-[4-[[4-[5-acetyl-3-[7-(difluoromethyl)-6-(1-methylpyrazol-4-yl)-3,4-dihydro-2H-quinolin-1-yl]-6,7-dihydro-4H-pyrazolo[4,3-c]pyridin-1-yl]-1-piperidyl]methyl]-3,5-dimethyl-1-piperidyl]-N-[3-(4-cyano-3-methyl-phenoxy)-2,2,4,4-tetramethyl-cyclobutyl]pyrimidine-5-carboxamide], the EC50 with AR / CBP ternary complex was < 1 nM. Also, the half-inhibitory concentration (IC50) in the assay on VCaP cells is ≤ 0.1 nM.

As to `CC(=O)N1CCc2c(c(N3CCCc4cc(-c5cnn(C)c5)c(C(F)F)cc43)nn2C2CCC(CN3CCN(c4ncc(C(=O)NC5C(C)(C)C(Oc6ccc(C#N)c(Cl)c6)C5(C)C)cn4)CC3)CC2)C1` (stereo not shown) [Compound 318, 2-[4-[[4-[5-acetyl-3-[7-(difluoromethyl)-6-(1-methylpyrazol-4-yl)-3,4-dihydro-2H-quinolin-1-yl]-6,7-dihydro-4H-pyrazolo[4,3-c]pyridin-1-yl]cyclohexyl]methyl]piperazin-1-yl]-N-[3-(3-chloro-4-cyano-phenoxy)-2,2,4,4-tetramethyl-cyclobutyl]pyrimidine-5-carboxamide], in the assay with AR / CBP ternary complex, the EC50 was < 1 nM. The IC50 with VCaP cells was ≤ 0.1 nM.

Take `C[C@@H]1CC(=O)Nc2cccc(-c3ccc4c(c3)c(-c3cnn(C)c3)nn4CCCOc3ncc(C(=O)NC4C(C)(C)C(Oc5ccc(C#N)c(Cl)c5)C4(C)C)cn3)c2N1` (stereo partly drawn) [Compound 49, N-[3-(3-chloro-4-cyano-phenoxy)-2,2,4,4-tetramethyl-cyclobutyl]-2-[3-[5-[(4R)-4-methyl-2-oxo-1,3,4,5-tetrahydro-1,5-benzodiazepin-6-yl]-3-(1-methylpyrazol-4-yl)indazol-1-yl]propoxy]pyrimidine-5-carboxamide]: the EC50 in the assay on AR / CBP ternary complex is > 100 nM. Further, the half-inhibitory concentration (IC50) in the assay with VCaP cells lay in the range of 1 to 100 nM.

`COc1cc(OC2C(C)(C)C(NC(=O)c3ccc(N4CCC(CCc5ccc(-c6cc7c(cc6C(F)F)N(c6nn(C8CCOCC8)c8c6CN(C(C)=O)CC8)CCC7)cc5)CC4)cc3)C2(C)C)ccc1C#N` (stereo not shown) [Compound 248, 4-[4-[2-[4-[1-(5-acetyl-1-tetrahydropyran-4-yl-6,7-dihydro-4H-pyrazolo[4,3-c]pyridin-3-yl)-7-(difluoromethyl)-3,4-dihydro-2H-quinolin-6-yl]phenyl]ethyl]-1-piperidyl]-N-[3-(4-cyano-3-methoxy-phenoxy)-2,2,4,4-tetramethyl-cyclobutyl]benzamide]: the 50% effective concentration (EC50) in the assay on AR / CBP ternary complex was < 1 nM. This compound came in with an IC50 in the assay with VCaP cells of 0.1 to 1 nM.

As for `CC(=O)N1CCc2c(c(-c3cccc4cc(-c5cnn(C6CCN(C7CCN(c8ncc(C(=O)NC9C(C)(C)C(Oc%10ccc(C#N)c(Cl)c%10)C9(C)C)cn8)CC7)C6)c5)ncc34)nn2C2CCOCC2)C1` (stereo not shown) [Compound 222, 2-[4-[3-[4-[8-(5-acetyl-1-tetrahydropyran-4-yl-6,7-dihydro-4H-pyrazolo[4,3-c]pyridin-3-yl)-3-isoquinolyl]pyrazol-1-yl]pyrrolidin-1-yl]-1-piperidyl]-N-[3-(3-chloro-4-cyano-phenoxy)-2,2,4,4-tetramethyl-cyclobutyl]pyrimidine-5-carboxamide], the EC50 in the assay on AR / CBP ternary complex was < 1 nM. Besides, the IC50 in the assay with VCaP cells was in the range of 0.1 to 1 nM.

(Values after patent US20250129070A1, “BIFUNCTIONAL ANDROGEN RECEPTOR COMPOUNDS” (priority 2023, published 2025).)
